Read-outs that look alike come from different tables or passages of the source. Residues, ends and D or L forms follow the SMILES beside them.
Assays:
[1] = biological target: neuraminidase of A/CHK/MX/1994 H5N2 (Influenza A virus, UniProt Q0A2F2); format: biochemical, Influenza A virus A/Chicken/Mexico/31381-7/1994 (H5N2)
[2] = test system: avian influenza A A/CHK/MX/1994 H5N2 virus; experiment: microbe, parasite or virus in culture; format: cell-based; details: for IC50: read-out: IC50 of viral replication inhibition
[3] = biological target: T1, neuraminidase of A/PR/8/34 H1N1 (Influenza A virus, UniProt P03468); experiment: biochemical; format: biochemical, Influenza A virus A/Puerto Rico/8/34 (H1N1)
T1 construct: Samples of cell supernatant infected with whole virus were used as source of enzymes; host or cells: MDCK cells infected with the virus; clarified culture supernatant

in vitro = details: dog
MDCK cells = details: dog

Molecule	inhibition of viral replication (lytic plaques) ([2]; at 1 mM)	IC50 [3] [mM]	Ki [3] [mM]	inhibition mechanism [3]	inhibition mechanism [1]	also measured
3-(propylaminosulfonyl)-4-chlorobenzoic acid [STL]	completely inhibited					IC50 [1]: 24.8 ± 1.3 mM; inhibition of viral replication (lytic plaques) ([2]; at 100 μM): losing this effect
CSCCC(NC(=O)C(Cc1ccccc1)NC(C)=O)C(=O)O (stereo not drawn) [AAMOL, N-acetylphenylalanylmethionine] (Ac-Phe-Met-OH; configuration not given here)		57 ± 1.1	15.3	competitive	competitive	inhibition of viral replication (lytic plaques) ([2]; at 1 μM): no inhibition effect was observed; CC50 (in vitro): 0.016 ± 0.0015 mM
O=C1O[C@H]([C@@H](O)CO)C(O)=C1O [CIV, ascorbic acid]		32 ± 1.5	26.4	noncompetitive	noncompetitive	inhibition of viral replication (lytic plaques) ([2]; at 1 μM): no inhibition effect was observed; CC50 (MDCK cells): 0.00055 ± 0.0011 mM; CC50 (in vitro): 0.0003 mM
Cc1ccc(C)c(NC(=O)CC(C(=O)O)N2CCNCC2)c1 (stereo not shown) [FMOL, propanoic 3-[(2,5-dimethylphenyl)carbamoyl]-2-(piperazin-1-yl) acid]	affected the size and number of plaques					inhibition of viral replication (lytic plaques) ([2]; at 100 μM): affected the size and number of plaques
CC(=O)N[C@H]1[C@H]([C@H](O)[C@H](O)CO)O[C@@](Oc2ccc3c(C)cc(=O)oc3c2)(C(=O)O)C[C@@H]1O [MUNANA, 2′-O-(4-methylumbelliferyl)-α-dN-acetylneuraminic acid]						Km [3]: 142 µM; Vmax [3]: 2.77 µmol/min; Km [1]: 106 µM; Vmax [1]: 5.2 µmol/min
CCCN(CCC)S(=O)(=O)c1ccc(C(=O)O)cc1 [ORP, 4-(dipropylsulfamoyl) benzoic acid]	only lowered the number of plaques	23 ± 1.2	10.5	competitive	competitive	IC50 ([2]; Influenza A virus, H5N2, MDCK, in Canis lupus familiaris): 0.157 mM
CC(=O)N[C@H]1[C@H]([C@H](O)[C@H](O)CO)OC(C(=O)O)=C[C@@H]1N=C(N)N [Zanamivir, zanamivir]					competitive	lytic plaque formation [2]: not detected; IC50 [2]: 0.000741 mM

Source: paper PMC7571124 (Molecules, 2020)
